Measured values reported in the NIST ThermoML archive (doi:10.1016/j.fluid.2015.05.032).
± gives the expanded uncertainty stated by the source.

What was measured:
[1] = Liquid; for mass density: 298.15 K, 101.33 kPa, Vibrating tube method; for Normal boiling temperature: Ebulliometric method (Recirculating still)
[2] = refractive index (Na D-line) (dimensionless); details: 293.15 K; 101.33 kPa; Liquid; Standard Abbe refractometry

Row | Structure (SMILES) | mass density [1] [kg/m3] | Normal boiling temperature [1] [°C] | refractive index [2]
1 | CCC(C)OC(C)=O (configuration not stated) [1-methylpropyl ethanoate] | 866.4 ± 0.3 | 111.93 ± 0.2 | 1.3886 ± 0.0004
2 | CC(=O)O [acetic acid] | 1043.5 ± 0.3 | 117.93 ± 0.2 | 1.3718 ± 0.0004
3 | COC(C)=O [methyl ethanoate] | 927.5 ± 0.3 | 56.7 ± 0.2 | 1.3614 ± 0.0004
4 | Cc1ccc(C)cc1 [1,4-dimethylbenzene] | 856.5 ± 0.3 | 138.47 ± 0.2 | 1.4952 ± 0.0004
